Values quoted from earlier work in patent US20200319191A1, “MOLECULAR PROFILING FOR CANCER” (Caris MPI, Inc., priority 2015, published 2020).
Like-named read-outs stand apart in the source and are kept apart here. Blank lines part the entries; values can stand above or below the compound they belong to.

Key:
c-Kit = c-Kit (Homo sapiens, UniProt P10721)
[1] = system: platelet-derived growth factor receptor (PDGFR)
[2] = for Evid. Level, ER Positive (IHC) / Bene. Level, ER Positive (IHC): Hormonal Agents; for sensitivity of AML tumor cells by NPM status: AML tumor cells with mutant NPM; for resistance by ALK secondary mutations: ALK secondary mutations found in NSCLC; for sensitivity by EGFRvIII expression: preliminary studies; for Bene. Level, PGP Positive (IHC) / Evid. Level, PGP Positive (IHC): Anthracyclines

c-Kit, sequence (P10721 26-976): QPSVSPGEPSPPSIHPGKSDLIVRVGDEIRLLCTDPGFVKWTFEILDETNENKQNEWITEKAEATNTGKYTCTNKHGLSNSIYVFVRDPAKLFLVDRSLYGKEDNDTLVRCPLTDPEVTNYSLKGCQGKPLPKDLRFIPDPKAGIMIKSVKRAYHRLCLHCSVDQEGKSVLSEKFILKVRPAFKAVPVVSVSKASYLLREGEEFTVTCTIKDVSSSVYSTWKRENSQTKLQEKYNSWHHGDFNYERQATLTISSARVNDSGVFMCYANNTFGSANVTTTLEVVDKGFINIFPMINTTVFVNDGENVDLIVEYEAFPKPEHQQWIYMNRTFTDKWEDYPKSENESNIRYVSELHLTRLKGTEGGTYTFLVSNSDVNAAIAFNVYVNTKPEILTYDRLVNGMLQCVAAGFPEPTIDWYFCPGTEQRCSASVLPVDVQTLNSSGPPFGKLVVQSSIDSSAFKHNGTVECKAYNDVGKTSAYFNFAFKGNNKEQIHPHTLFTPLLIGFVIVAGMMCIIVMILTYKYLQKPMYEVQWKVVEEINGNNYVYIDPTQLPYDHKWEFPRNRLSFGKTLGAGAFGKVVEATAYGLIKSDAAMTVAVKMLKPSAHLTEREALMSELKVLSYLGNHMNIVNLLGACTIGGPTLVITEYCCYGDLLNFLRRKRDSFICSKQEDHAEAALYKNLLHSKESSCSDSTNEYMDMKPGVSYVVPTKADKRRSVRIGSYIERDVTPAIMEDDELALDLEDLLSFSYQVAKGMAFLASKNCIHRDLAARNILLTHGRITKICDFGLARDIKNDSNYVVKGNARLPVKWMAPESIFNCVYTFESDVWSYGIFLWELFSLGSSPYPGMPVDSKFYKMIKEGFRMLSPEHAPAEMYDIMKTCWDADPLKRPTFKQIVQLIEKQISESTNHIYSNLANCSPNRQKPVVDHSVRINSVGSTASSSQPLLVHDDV

kinase activity (c-Kit): block the activity
SMILES: Cc1ccc(NC(=O)c2ccc(CN3CCN(C)CC3)cc2)cc1Nc1nccc(-c2cccnc2)n1 [Imatinib, imatinib]
kinase activity [1]: block the activity

Evid. Level, ER Positive (IHC) ([2]; ER Positive (IHC)=F): 1 | Bene. Level, ER Positive (IHC) ([2]; ER Positive (IHC)=T): 1 | Evid. Level, ER Positive (IHC) ([2]; ER Positive (IHC)=T): 1
SMILES: CC(C)(C#N)c1cc(Cn2cncn2)cc(C(C)(C)C#N)c1 [anastrozole]

SMILES: CC[C@@]1(O)C(=O)OCc2c1cc1n(c2=O)Cc2cc3ccccc3nc2-1 [camptothecin]
sensitivity of AML tumor cells by NPM status [2]: research shows AML tumor cells with mutant NPM are more sensitive to

SMILES: Cc1cc(Nc2ncc(Cl)c(Nc3ccccc3S(=O)(=O)C(C)C)n2)c(OC(C)C)cc1C1CCNCC1 [ceritinib]
resistance by ALK secondary mutations [2]: mutations found in NSCLC have been associated with acquired resistance to ALK

SMILES: C[C@@H](Oc1cc(-c2cnn(C3CCNCC3)c2)cnc1N)c1c(Cl)ccc(F)c1Cl [crizotinib]
resistance by ALK secondary mutations [2]: mutations found in NSCLC have been associated with acquired resistance to ALK | sensitivity and response by ROS1 status ([2]; ROS-rearranged NSCLC patients, clinical data): improved response to the MET/ALK/ROS inhibitor, crizotinib.

SMILES: COc1cc2ncnc(Nc3ccc(F)c(Cl)c3)c2cc1NC(=O)/C=C/CN1CCCCC1 [dacomitinib]
sensitivity by EGFRvIII expression [2]: higher sensitivity to erlotinib and gefitinib, as well as to pan-Her inhibitors including

SMILES: COc1cccc2c1C(=O)c1c(O)c3c(c(O)c1C2=O)C[C@@](O)(C(C)=O)C[C@@H]3O[C@H]1C[C@H](N)[C@H](O)[C@H](C)O1 [daunorubicin]
sensitivity of AML tumor cells by NPM status [2]: research shows AML tumor cells with mutant NPM are more sensitive to

PGP Positive (IHC) Bene. Level ([2]; IHC positive: TLE3 F, TUBB3 F, PGP F): 1 | PGP Positive (IHC) Bene. Level ([2]; IHC positive: TLE3 F, TUBB3 F, PGP T): 2 | PGP Positive (IHC) Bene. Level ([2]; IHC positive: TLE3 F, TUBB3 No Data, PGP F): 1 | PGP Positive (IHC) Bene. Level ([2]; IHC positive: TLE3 F, TUBB3 No Data, PGP T): 3 | PGP Positive (IHC) Bene. Level ([2]; IHC positive: TLE3 F, TUBB3 T, PGP F): 1 | PGP Positive (IHC) Bene. Level ([2]; IHC positive: TLE3 F, TUBB3 T, PGP T): 3 | PGP Positive (IHC) Bene. Level ([2]; IHC positive: TLE3 No Data, TUBB3 F, PGP F): 1 | PGP Positive (IHC) Bene. Level ([2]; IHC positive: TLE3 No Data, TUBB3 F, PGP T): 2 | PGP Positive (IHC) Bene. Level ([2]; IHC positive: TLE3 No Data, TUBB3 No Data, PGP F): 1 | PGP Positive (IHC) Bene. Level ([2]; IHC positive: TLE3 No Data, TUBB3 No Data, PGP T): 3 | PGP Positive (IHC) Bene. Level ([2]; IHC positive: TLE3 No Data, TUBB3 T, PGP F): 1 | PGP Positive (IHC) Bene. Level ([2]; IHC positive: TLE3 No Data, TUBB3 T, PGP T): 3 | PGP Positive (IHC) Bene. Level ([2]; IHC positive: TLE3 T, TUBB3 F, PGP F): 1 | PGP Positive (IHC) Bene. Level ([2]; IHC positive: TLE3 T, TUBB3 F, PGP T): 2 | PGP Positive (IHC) Bene. Level ([2]; IHC positive: TLE3 T, TUBB3 No Data, PGP F): 1 | PGP Positive (IHC) Bene. Level ([2]; IHC positive: TLE3 T, TUBB3 No Data, PGP T): 2 | PGP Positive (IHC) Bene. Level ([2]; IHC positive: TLE3 T, TUBB3 T, PGP F): 1 | PGP Positive (IHC) Bene. Level ([2]; IHC positive: TLE3 T, TUBB3 T, PGP T): 2 | PGP Positive (IHC) Evid. Level ([2]; taxanes rule, Ref. No. 28): 3
SMILES: CC(=O)O[C@@]12CO[C@@H]1C[C@H](O)[C@@]1(C)C(=O)[C@H](O)C3=C(C)[C@@H](OC(=O)[C@H](O)[C@@H](NC(=O)OC(C)(C)C)c4ccccc4)C[C@@](O)([C@@H](OC(=O)c4ccccc4)[C@H]21)C3(C)C [docetaxel]

Bene. Level, PGP Positive (IHC) ([2]; PGP Positive (IHC)=F): 1 | Evid. Level, PGP Positive (IHC) ([2]; PGP Positive (IHC)=F): 2 | Bene. Level, PGP Positive (IHC) ([2]; PGP Positive (IHC)=T): 2 | Evid. Level, PGP Positive (IHC) ([2]; PGP Positive (IHC)=T): 2
SMILES: COc1cccc2c1C(=O)c1c(O)c3c(c(O)c1C2=O)C[C@@](O)(C(=O)CO)C[C@@H]3O[C@H]1C[C@H](N)[C@H](O)[C@H](C)O1 [doxorubicin, reference compound]

SMILES: CNC(=O)c1ccc(N2C(=S)N(c3ccc(C#N)c(C(F)(F)F)c3)C(=O)C2(C)C)cc1F [enzalutamide]
resistance by AR mutations ([2]; specific mutations in AR (e.g. F876L, AR-V7)): F876L, AR-V7) are associated with resistance to newer-generation, AR-targeted therapies

Bene. Level, PGP Positive (IHC) ([2]; PGP Positive (IHC)=F): 1 | Evid. Level, PGP Positive (IHC) ([2]; PGP Positive (IHC)=F): 2 | Bene. Level, PGP Positive (IHC) ([2]; PGP Positive (IHC)=T): 2 | Evid. Level, PGP Positive (IHC) ([2]; PGP Positive (IHC)=T): 2
SMILES: COc1cccc2c1C(=O)c1c(O)c3c(c(O)c1C2=O)C[C@@](O)(C(=O)CO)C[C@@H]3O[C@H]1C[C@H](N)[C@@H](O)[C@H](C)O1 [epirubicin]

SMILES: C#Cc1cccc(Nc2ncnc3cc(OCCOC)c(OCCOC)cc23)c1 [erlotinib]
sensitivity by EGFRvIII expression [2]: higher sensitivity to erlotinib and gefitinib, as well as to pan-Her inhibitors including | response by EGFR secondary mutation ([2]; T790M in exon 20): mutation, T790M in exon 20, confers reduced response. Non-small cell lung cancer cancer | sensitivity by EGFR gain-of-function mutations ([2]; in-frame deletions in exon 19 or point mutations in exon 21): point mutations in exon 21, confer sensitivity to first- and second-generation tyrosine

SMILES: CO[C@H]1C[C@@H]2CC[C@@H](C)[C@@](O)(O2)C(=O)C(=O)N2CCCC[C@H]2C(=O)O[C@H]([C@H](C)C[C@@H]2CC[C@@H](OCCO)[C@H](OC)C2)CC(=O)[C@H](C)/C=C(\C)[C@@H](O)[C@@H](OC)C(=O)[C@H](C)C[C@H](C)/C=C/C=C/C=C/1C [everolimus]
benefit by PIK3CA status ([2]; PIK3CA exon 20 mutations): associated with benefit from mTOR inhibitors (everolimus, temsirolimus). Evidence

Evid. Level, ER Positive (IHC) ([2]; ER Positive (IHC)=F): 1 | Bene. Level, ER Positive (IHC) ([2]; ER Positive (IHC)=T): 1 | Evid. Level, ER Positive (IHC) ([2]; ER Positive (IHC)=T): 1
SMILES: C=C1C[C@@H]2[C@H](CC[C@]3(C)C(=O)CC[C@@H]23)[C@@]2(C)C=CC(=O)C=C12 [exemestane]
